This assay deals with T1, ULK1 (Homo sapiens, UniProt O75385).
T1 sequence (O75385 1-1050): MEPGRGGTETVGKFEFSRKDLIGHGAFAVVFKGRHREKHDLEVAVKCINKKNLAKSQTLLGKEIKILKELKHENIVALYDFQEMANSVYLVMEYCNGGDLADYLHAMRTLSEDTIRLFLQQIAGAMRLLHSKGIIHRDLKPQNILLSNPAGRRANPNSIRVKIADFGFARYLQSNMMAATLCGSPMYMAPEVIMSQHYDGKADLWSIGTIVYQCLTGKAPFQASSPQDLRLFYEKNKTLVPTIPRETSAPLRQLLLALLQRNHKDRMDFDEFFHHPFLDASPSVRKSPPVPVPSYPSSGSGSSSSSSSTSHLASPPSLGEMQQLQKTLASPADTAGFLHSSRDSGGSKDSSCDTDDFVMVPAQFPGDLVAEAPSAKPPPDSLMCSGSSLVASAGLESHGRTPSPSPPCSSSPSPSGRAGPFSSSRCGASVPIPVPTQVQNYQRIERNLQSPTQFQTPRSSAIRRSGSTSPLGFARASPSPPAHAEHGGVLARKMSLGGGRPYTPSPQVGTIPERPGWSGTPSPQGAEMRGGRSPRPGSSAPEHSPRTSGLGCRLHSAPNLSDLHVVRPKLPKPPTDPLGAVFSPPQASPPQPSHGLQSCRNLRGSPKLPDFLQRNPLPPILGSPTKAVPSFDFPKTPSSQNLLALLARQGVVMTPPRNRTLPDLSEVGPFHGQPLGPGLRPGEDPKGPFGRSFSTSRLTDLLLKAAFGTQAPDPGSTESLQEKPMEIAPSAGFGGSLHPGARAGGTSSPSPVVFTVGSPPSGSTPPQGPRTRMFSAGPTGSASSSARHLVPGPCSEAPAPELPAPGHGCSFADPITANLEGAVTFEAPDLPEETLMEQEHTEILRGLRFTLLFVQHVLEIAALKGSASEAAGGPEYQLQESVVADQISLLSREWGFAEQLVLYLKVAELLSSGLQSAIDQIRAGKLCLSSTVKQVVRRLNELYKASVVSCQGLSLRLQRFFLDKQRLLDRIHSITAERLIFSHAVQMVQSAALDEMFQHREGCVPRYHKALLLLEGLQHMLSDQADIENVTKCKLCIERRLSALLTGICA
Description: ULK1 inhibition assay. It is filed as biochemical. The note with it: * = tested as a mixture of regioisomers.
The term IC50 denotes the midpoint of a concentration-inhibition curve. As to `COc1cccc(Nc2nc(Nc3ccc4c(c3)CCC(=O)N4)ncc2Br)c1` [Compound 142], the IC50 was < 200 nM.
With `COc1cnc(Nc2ccc3c(c2)CCC(=O)N3)nc1Nc1ccc2c(c1)CCC(=O)N2` [Compound 135] the figure was > 2000 nM; with `CCN1CCOc2cc(Nc3nc(Nc4ccc5c(c4)CCC(=O)N5)ncc3Br)cnc21` [Compound 343], < 200 nM.
With `CNC(=O)Cc1ccccc1Oc1nc(Nc2cc(OC)c(OC)c(OC)c2)ncc1Br` [Compound 327] the figure was > 2000 nM; with `FC(F)(F)c1cnc(Nc2cccc3ncccc23)nc1NC1CC1` [Compound 278], > 2000 nM.
Next, `CNC(=O)c1ccccc1Nc1nc(Nc2cc(OC)c(OC)c(OC)c2)ncc1Cl` [Compound 15]: < 200 nM; `COc1cccc(Nc2nc(Nc3cc4ccccc4cc3O)ncc2C(F)(F)F)c1` [137*]: 200 to 2000 nM.
With `CNC(=O)c1ccccc1Nc1nc(Nc2cccc(OC)c2)ncc1Cl` [Compound 44], the concentration for half-maximal inhibition (IC50) is < 200 nM.
With `COc1cc(Nc2ncc(Br)c(Oc3ccccc3C(=O)NC3CC3)n2)cc(OC)c1OC` [Compound 270] the figure was 200 to 2000 nM; with `CNC(=O)c1ccccc1Nc1nc(Nc2ccc3c(c2)CCC(=O)N3)ncc1Br` [Compound 20], < 200 nM; with `O=C1CCc2cc(Nc3ncc(C(F)(F)F)c(Nc4ccc5c(c4)OCO5)n3)ccc2N1` [124*], < 200 nM.
Next, `FC(F)(F)c1cnc(Nc2cnc3[nH]ccc3c2)nc1Nc1ccc2c(c1)OCO2` [Compound 177]: < 200 nM.
Next, `CNC(=O)c1ccccc1Oc1nc(Nc2cc(OC)c(OC)c(OC)c2)ncc1Cl` [Compound 234a]: > 2000 nM; `COc1cc(Nc2ncc(Br)c(Oc3ccccc3C(N)=O)n2)cc(OC)c1OC` [Compound 249]: < 200 nM.
For `NC(=O)c1cccc(Nc2ncc(C(F)(F)F)c(Nc3ccc4c(c3)OCO4)n2)c1` [138*], the IC50 was < 200 nM.
With `CNc1nc(Nc2cnc3[nH]ccc3c2)ncc1C(F)(F)F` [Compound 182a] the figure was < 200 nM; with `FC(F)(F)c1cnc(Nc2cnc3[nH]ccc3c2)nc1Nc1ccccc1` [Compound 181a], < 200 nM.
In the case of `COc1cc(Nc2ncc(Br)c(Oc3cccc4cccnc34)n2)cc(OC)c1OC` [Compound 324a], the IC50 is > 2000 nM.
Turning to `COc1ccc(Nc2nc(Nc3ccc4[nH]ccc4c3)ncc2Br)cn1` [Compound 30], the IC50 was < 200 nM.
For `CNC(=O)c1ccccc1Oc1nc(Nc2ccc3c(c2)CCC(=O)N3)ncc1Br` [Compound 325], the IC50 is > 2000 nM.
With `COc1cc(Nc2ncc(Br)c(Oc3ccccc3NS(C)(=O)=O)n2)cc(OC)c1OC` [Compound 345] the figure was > 2000 nM; with `CNC(=O)c1ccccc1Oc1nc(Nc2cc(OC)ccc2C)ncc1C(F)(F)F` [Compound 101], > 2000 nM.
Next, `O=C1CCc2cc(Nc3ncc(C(F)(F)F)c(NCCCNC(=O)C4CC4)n3)ccc2N1` [Compound 333]: < 200 nM.
With `O=C1CCc2cc(Nc3ncc(C(F)(F)F)c(NC4COC4)n3)ccc2N1` [Compound 193] the figure was > 2000 nM.
As to `CNC(=O)c1ccccc1Oc1nc(Nc2cc(OC)ccc2OC)ncc1C(F)(F)F` [Compound 109a], the half-inhibitory concentration (IC50) was > 2000 nM.
Next, `FC(F)(F)c1cnc(NCc2cccc3ccccc23)nc1NC1CC1` [Compound 262]: > 2000 nM.
With `FC1(F)Oc2ccc(Nc3ncc(C(F)(F)F)c(NC4CC4)n3)cc2O1` [Compound 258] the figure was > 2000 nM; with `FC(F)(F)c1cnc(NC2CCC2)nc1Nc1cnc2[nH]ccc2c1` [Compound 161b], < 200 nM; with `COc1cc(Nc2ncc(Br)c(Oc3ccccc3C3=NC(C)(C)CO3)n2)cc(OC)c1OC` [Compound 355], > 2000 nM.
Next, `FC(F)(F)c1cnc(Nc2ccc3ncccc3c2)nc1NC1CC1` [Compound 264]: < 200 nM; `COc1cc(N2CCOCC2)ccc1Nc1nc(Nc2ccc3c(c2)CCC(=O)N3)ncc1C(F)(F)F` [Compound 123a]: < 200 nM.

The values are drawn from patent publication US20230130766A1 (SALK INSTITUTE FOR BIOLOGICAL STUDIES, priority 2020, published 2023).
